The values below come from ChEMBL document CHEMBL1148838, “Synthesis and antibacterial evaluation of a novel series of rifabutin-like spirorifamycins” (2007).

Type in all cases: functional
The test system of assay [1] is Staphylococcus aureus. Nature of the assay: Antibacterial activity against rifamycin-sensitive Staphylococcus aureus CB190.
Assay [2] has as its system Staphylococcus aureus. Nature of the assay: Antibacterial activity against intermediate rifamycin-resistant Staphylococcus aureus CB372 with rpoB Asp471Tyr mutation.
Assay [3] deals with Staphylococcus aureus. Nature of the assay: Antibacterial activity against rifamycin-resistant Staphylococcus aureus CB370 with rpoB His481Tyr mutation.
Assay [4] has as its system Staphylococcus aureus. Nature of the assay: Antibacterial activity against Staphylococcus aureus ATCC 6538 induced-septicemia in po dosed mouse. As to conditions: ATCC 6538, po.
In assay [5] the test system is Staphylococcus aureus. Nature of the assay: Antibacterial activity against Staphylococcus aureus ATCC 6538 induced-septicemia in sc dosed mouse. As to conditions: ATCC 6538, sc.

≈ marks a conversion by molar mass, not a printed value. Bounds are passed on as bounds.

On to `CO[C@H]1/C=C/O[C@@]2(C)Oc3c(C)c(O)c4c(c3C2=O)C2=NC3(CCN(CC(C)C)CC3)CNC2=C(NC(=O)/C(C)=C\C=C\[C@H](C)[C@H](O)[C@@H](C)[C@@H](O)[C@@H](C)[C@H](OC(C)=O)[C@@H]1C)C4=O`, for which the MIC – broadly, the least concentration at which growth counts as inhibited – in assay [1] is 0.063 µg/mL (≈ 0.0732 µM); in assay [2], 7.81 µg/mL (≈ 9.07 µM); in assay [3] it was above 62.5 µg/mL. The figures for the ED50 in assay [4] and in assay [5] were below 0.1 mg/kg and 0.6 mg/kg, respectively.
On to `CO[C@H]1/C=C/O[C@@]2(C)Oc3c(C)c(O)c4c(c3C2=O)C2=NC3(CCN(Cc5cnc6ccccc6c5)C3)CNC2=C(NC(=O)/C(C)=C\C=C\[C@H](C)[C@H](O)[C@@H](C)[C@@H](O)[C@@H](C)[C@H](OC(C)=O)[C@@H]1C)C4=O` (some centres undefined), for which the MIC in assay [1] is 0.063 µg/mL (≈ 0.0676 µM); in assay [2], 7.81 µg/mL (≈ 8.38 µM); in assay [3], above 62.5 µg/mL.
Regarding `CO[C@H]1/C=C/O[C@@]2(C)Oc3c(C)c(O)c4c(c3C2=O)C2=NC3(CCN(C(=O)OC(C)(C)C)C3)CNC2=C(NC(=O)/C(C)=C\C=C\[C@H](C)[C@H](O)[C@@H](C)[C@@H](O)[C@@H](C)[C@H](OC(C)=O)[C@@H]1C)C4=O` (some centres undefined), the MIC in assay [1] is 0.016 µg/mL (≈ 0.018 µM); in assay [2], 7.81 µg/mL (≈ 8.77 µM); in assay [3], above 62.5 µg/mL.
As for `C=CCN1CCC2(CC1)CNC1=C3NC(=O)/C(C)=C\C=C\[C@H](C)[C@H](O)[C@@H](C)[C@@H](O)[C@@H](C)[C@H](OC(C)=O)[C@H](C)[C@@H](OC)/C=C/O[C@@]4(C)Oc5c(C)c(O)c(c(c5C4=O)C1=N2)C3=O`, the MIC in assay [1] was 0.006 µg/mL (≈ 0.0071 µM); in assay [2] it was 15.6 µg/mL (≈ 18.5 µM); in assay [3], above 62.5 µg/mL.
`CO[C@H]1/C=C/O[C@@]2(C)Oc3c(C)c(O)c4c(c3C2=O)C2=NC3(CCN(C)C3)CNC2=C(NC(=O)/C(C)=C\C=C\[C@H](C)[C@H](O)[C@@H](C)[C@@H](O)[C@@H](C)[C@H](OC(C)=O)[C@@H]1C)C4=O` (some centres undefined): the MIC in assay [1] is 0.013 µg/mL (≈ 0.0162 µM); in assay [2] it was 0.98 µg/mL (≈ 1.22 µM); in assay [3], above 62.5 µg/mL.
With `CO[C@H]1/C=C/O[C@@]2(C)Oc3c(C)c(O)c4c(c3C2=O)C2=NC3(CCN(Cc5cnc6ccccc6c5)CC3)CNC2=C(NC(=O)/C(C)=C\C=C\[C@H](C)[C@H](O)[C@@H](C)[C@@H](O)[C@@H](C)[C@H](OC(C)=O)[C@@H]1C)C4=O`, the values for the MIC in assay [1], in assay [2] and in assay [3] were 0.063 µg/mL (≈ 0.0666 µM), 0.98 µg/mL (≈ 1.04 µM) and 15.6 µg/mL (≈ 16.5 µM), respectively. In addition, the values for the ED50 in assay [4] and in assay [5] were 5 mg/kg and 0.6 mg/kg, respectively.
For `CO[C@H]1/C=C/O[C@@]2(C)Oc3c(C)c(O)c4c(c3C2=O)C2=NC3(CCN(C(=O)OC(C)(C)C)CC3)CNC2=C(NC(=O)/C(C)=C\C=C\[C@H](C)[C@H](O)[C@@H](C)[C@@H](O)[C@@H](C)[C@H](OC(C)=O)[C@@H]1C)C4=O`, the MIC in assay [1] is 0.026 µg/mL (≈ 0.0287 µM); in assay [2], 7.81 µg/mL (≈ 8.63 µM); in assay [3], above 62.5 µg/mL.
As for `CO[C@H]1/C=C/O[C@@]2(C)Oc3c(C)c(O)c4c(c3C2=O)C2=NC3(CCN(CC(C)C)CC3)NC2=C(NC(=O)/C(C)=C\C=C\[C@H](C)[C@H](O)[C@@H](C)[C@@H](O)[C@@H](C)[C@H](OC(C)=O)[C@@H]1C)C4=O` [RIFABUTIN], the MIC in assay [1] was 0.031 µg/mL (≈ 0.0366 µM); in assay [2] it was 15.6 µg/mL (≈ 18.4 µM); in assay [3], above 62.5 µg/mL. The results for the ED50 in assay [4] and in assay [5] were 0.6 mg/kg and below 0.1 mg/kg, respectively.
On to `CO[C@H]1/C=C/O[C@@]2(C)Oc3c(C)c(O)c4c(c3C2=O)C2=NC3(CCN(Cc5ccccc5)C3)CNC2=C(NC(=O)/C(C)=C\C=C\[C@H](C)[C@H](O)[C@@H](C)[C@@H](O)[C@@H](C)[C@H](OC(C)=O)[C@@H]1C)C4=O` (some centres undefined), for which the values for the MIC in assay [1], in assay [2] and in assay [3] were 0.031 µg/mL (≈ 0.0352 µM), 3.91 µg/mL (≈ 4.44 µM) and above 62.5 µg/mL, respectively.
Regarding `CO[C@H]1/C=C/O[C@@]2(C)Oc3c(C)c(O)c4c(c3C2=O)C2=NC3(CCN(C)CC3)CNC2=C(NC(=O)/C(C)=C\C=C\[C@H](C)[C@H](O)[C@@H](C)[C@@H](O)[C@@H](C)[C@H](OC(C)=O)[C@@H]1C)C4=O`, the MIC in assay [1] was 0.016 µg/mL (≈ 0.0195 µM); in assay [2] it was 1.95 µg/mL (≈ 2.38 µM); in assay [3], above 62.5 µg/mL. Moreover, the ED50 (usually the dose that gives a 50% effect, or the effect in half of the subjects) was above 10 mg/kg in assay [4] and 0.3 mg/kg in assay [5].
For the molecule `CO[C@H]1/C=C/O[C@@]2(C)Oc3c(C)c(O)c4c(c3C2=O)C2=NC3(CCN(Cc5ccccc5)CC3)CNC2=C(NC(=O)/C(C)=C\C=C\[C@H](C)[C@H](O)[C@@H](C)[C@@H](O)[C@@H](C)[C@H](OC(C)=O)[C@@H]1C)C4=O`, the MIC in assay [1] amounted to 0.003 µg/mL (≈ 0.00335 µM); in assay [2], 1.95 µg/mL (≈ 2.18 µM); in assay [3] it was 32 µg/mL (≈ 35.8 µM).
Consider `CO[C@H]1/C=C/O[C@@]2(C)Oc3c(C)c(O)c4c(c3C2=O)C2=NC3(CCN(CC(C)C)C3)CNC2=C(NC(=O)/C(C)=C\C=C\[C@H](C)[C@H](O)[C@@H](C)[C@@H](O)[C@@H](C)[C@H](OC(C)=O)[C@@H]1C)C4=O` (some centres undefined), for which the figures for the MIC in assay [1], in assay [2] and in assay [3] were 0.063 µg/mL (≈ 0.0744 µM), above 62.5 µg/mL and 31.3 µg/mL (≈ 37 µM), respectively.
